These results are taken from patent US20030199578A1, “Naphthalene amides as potassium channel openers” (priority 2002, published 2003).

The subject of series [1] is Landrace pig bladder strips. As to the kind of experiment: In vitro functional model: field-stimulated bladder tissue strips. Particulars: dose dependent, concentration range 10^−9 to 10^−5 M, control agonist. Here is the method: Compounds were evaluated for functional potassium channel opening activity using tissue strips obtained from Landrace pig bladders. Landrace pig bladders were obtained from female Landrace pigs of 9-30 kg. Landrace pigs were euthanized with an intraperitoneal injection of pentobarbital solution, Somlethal®, J. A. Webster Inc., Sterling Mass. The entire bladder was removed and immediately placed into Krebs Ringer bicarbonate solution (composition, mM: NaCl, 120; NaHCO3, 20; dextrose, 11; KCl, 4.7; CaCl2, 2.5; MgSO4, 1.5; KH2PO4, 1.2; K2EDTA, 0.01, equilibrated with 5% CO2/95% O2 pH 7.4 at 37° C.). Propranolol (0.004 mM) was included in all of the assays to block β-adrenoceptors. The trigonal and dome portions were discarded. Strips 3-5 mm wide and 20 mm long were prepared from the remaining tissue cut in a circular fashion. The mucosal layer was removed. One end was fixed to a stationary glass rod and the other to a Grass FT03 transducer at a basal preload of 1.0 gram. Two parallel platinum electrodes were included in the stationary glass rod to provide field stimulation of 0.05 Hz, 0.5 milli-seconds at 20 volts. […] The maximal efficacy of each compound (expressed as % relative to P1075) is reported. […] Agonist potencies were also expressed as an index relative to P1075. The index was calculated by dividing the ED50 for P1075 by the ED50 for the test agonist in a given tissue. […]

In general, melting point refers to the temperature, or range, at which the solid turns liquid. As for `CC(=O)Nc1c(C(O)(C(F)(F)F)C(F)(F)F)cc(Cl)c2ccccc12` [Example 9, N-[4-Chloro-2-(2,2,2-trifluoro-1-hydroxy-1-trifluoromethyl-ethyl)-naphthalen-1-yl]-acetamide], the melting point was in the range of 161 to 162 °C.

Consider `O=C(Nc1c(C(O)(C(F)(F)F)C(F)(F)F)ccc2ccccc12)c1ccno1` [Example 41, Isoxazole-5-carboxylic acid [2-(2,2,2-trifluoro-1-hydroxy-1-trifluoromethyl-ethyl)-naphthalen-1-yl]-amide], for which the melting point lay in the range of 162 to 164 °C.

Turning to `CCC(C)(C)N=C(NC#N)Nc1cccnc1` [Example P1075], the “effect on stimulated twitch of bladder strips” value in series [1] was “completely eliminated the stimulated twitch”.
